{"source": "patent US12252480B2", "about": "“Salt forms and polymorphs of (R)-1-(4-(6-(2-(4-(3,3-difluorocyclobutoxy)-6-methylpyridin-2-yl)acetamido) pyridazin-3-yl)-2-fluorobutyl)-n-methyl-1H-1,2,3-triazole-4-carboxamide” (Board of Regents, The University of Texas System, priority 2015, dated 2025)", "key": {"A549 cells": {"test_system": "A549 cells", "test": "Proliferation Assay (A549, Cell Titer Fluor)", "type": "cell-based", "settings": "Homo sapiens, 72 hours incubation, read-out: EC50 against A549 cell proliferation", "description": "Proliferation Assay. A549 cells were routinely maintained in RPMI 1640 media (Gibco catalog number 11875-093) supplemented with 10% dialyzed fetal bovine serum using a humidified incubator (37° C., 5% CO2 and ambient O2). In preparation for the viability assay, cells were inoculated into 384-well black CulturPlates (Perkin Elmer) at a density of 1000 cells/well in a volume of 40 uL. Following a 24-hour incubation at 37° C., 5% CO2 and ambient O2, cells were treated with compound (10 uL) in a final DMSO concentration of 0.5% (v/v). The microplates were then incubated for 72 hours (37° C., 5% CO2 and ambient O2). Cell Titer Fluor (Promega) was subsequently added (10 uL of 6× reagent) and mixed for 15 minutes at room temperature. The plates were then incubated for 30 minutes (37° C., 5% CO2 and ambient O2) and fluorescence was subsequently read on the Perkin Elmer Envision plate reader. IC50 values were calculated using a four-parameter logistic curve fit."}, "[1]": {"test": "Dynamic Vapor Sorption (DVS)", "type": "physicochemical", "description": "Dynamic Vapor Sorption (DVS) was examined with an SMS Advantage instrument. About 10 mg of sample was transferred into the instrument, and the weight change with respect to the atmospheric humidity at 25° C. was recorded accordingly, with the following parameters: Equilibrium: dm/dt: 0.01%/min. (for min: 10 min and max: 180 min); drying: 0% RH for 120 min; RH (%) measurement step: 10%; RH (%) measurement step scope: 0-90-0%."}}}
{"smiles": "CNC(=O)c1cn(C[C@H](F)CCc2ccc(NC(=O)Cc3cc(OC4CC(F)(F)C4)cc(C)n3)nn2)nn1", "note": "[Example 1, (R)-1-(4-(6-(2-(4-(3,3-difluorocyclobutoxy)-6-methylpyridin-2-yl)acetamido)pyridazin-3-yl)-2-fluorobutyl)-N-methyl-1H-1,2,3-triazole-4-carboxamide]", "values": [{"measurement": "EC50", "setting": "A549 cells", "value": "< 100", "unit": "nM"}]}
{"smiles": "CNC(=O)c1cn(C[C@H](F)CCc2ccc(NC(=O)Cc3cc(OC4CC(F)(F)C4)cc(C)n3)nn2)nn1", "note": "[Polymorph D, (R)-1-(4-(6-(2-(4-(3,3-difluorocyclobutoxy)-6-methylpyridin-2-yl)acetamido)pyridazin-3-yl)-2-fluorobutyl)-N-methyl-1H-1,2,3-triazole-4-carboxamide]", "values": [{"measurement": "hygroscopicity (DVS result)", "setting": "[1]; 25° C., 0-80% RH", "value": "non-hygroscopic"}, {"measurement": "Change of Mass, Desorption", "setting": "[1]; Target % P/P0 0", "value": 0.052, "unit": "%"}, {"measurement": "Change of Mass, Sorption", "setting": "[1]; Target % P/P0 0", "value": 0.000, "unit": "%"}, {"measurement": "Change of Mass, Desorption", "setting": "[1]; Target % P/P0 10", "value": 0.0276, "unit": "%"}, {"measurement": "Change of Mass, Hysteresis", "setting": "[1]; Target % P/P0 10", "value": 0.0060, "unit": "%"}, {"measurement": "Change of Mass, Sorption", "setting": "[1]; Target % P/P0 10", "value": 0.0216, "unit": "%"}, {"measurement": "Change of Mass, Desorption", "setting": "[1]; Target % P/P0 20", "value": 0.0440, "unit": "%"}, {"measurement": "Change of Mass, Hysteresis", "setting": "[1]; Target % P/P0 20", "value": 0.0104, "unit": "%"}, {"measurement": "Change of Mass, Sorption", "setting": "[1]; Target % P/P0 20", "value": 0.0336, "unit": "%"}, {"measurement": "Change of Mass, Desorption", "setting": "[1]; Target % P/P0 30", "value": 0.0587, "unit": "%"}, {"measurement": "Change of Mass, Hysteresis", "setting": "[1]; Target % P/P0 30", "value": 0.0112, "unit": "%"}, {"measurement": "Change of Mass, Sorption", "setting": "[1]; Target % P/P0 30", "value": 0.0474, "unit": "%"}, {"measurement": "Change of Mass, Desorption", "setting": "[1]; Target % P/P0 40", "value": 0.0759, "unit": "%"}, {"measurement": "Change of Mass, Hysteresis", "setting": "[1]; Target % P/P0 40", "value": 0.0181, "unit": "%"}, {"measurement": "Change of Mass, Sorption", "setting": "[1]; Target % P/P0 40", "value": 0.0578, "unit": "%"}, {"measurement": "Change of Mass, Desorption", "setting": "[1]; Target % P/P0 50", "value": 0.0906, "unit": "%"}, {"measurement": "Change of Mass, Hysteresis", "setting": "[1]; Target % P/P0 50", "value": 0.0216, "unit": "%"}, {"measurement": "Change of Mass, Sorption", "setting": "[1]; Target % P/P0 50", "value": 0.0690, "unit": "%"}, {"measurement": "Change of Mass, Desorption", "setting": "[1]; Target % P/P0 60", "value": 0.1087, "unit": "%"}, {"measurement": "Change of Mass, Hysteresis", "setting": "[1]; Target % P/P0 60", "value": 0.0259, "unit": "%"}, {"measurement": "Change of Mass, Sorption", "setting": "[1]; Target % P/P0 60", "value": 0.0828, "unit": "%"}, {"measurement": "Change of Mass, Desorption", "setting": "[1]; Target % P/P0 70", "value": 0.1294, "unit": "%"}, {"measurement": "Change of Mass, Hysteresis", "setting": "[1]; Target % P/P0 70", "value": 0.0259, "unit": "%"}, {"measurement": "Change of Mass, Sorption", "setting": "[1]; Target % P/P0 70", "value": 0.1035, "unit": "%"}, {"measurement": "Change of Mass, Desorption", "setting": "[1]; Target % P/P0 80", "value": 0.1527, "unit": "%"}, {"measurement": "Change of Mass, Hysteresis", "setting": "[1]; Target % P/P0 80", "value": 0.0190, "unit": "%"}, {"measurement": "Change of Mass, Sorption", "setting": "[1]; Target % P/P0 80", "value": 0.1337, "unit": "%"}, {"measurement": "Change of Mass, Desorption", "setting": "[1]; Target % P/P0 90", "value": 0.1768, "unit": "%"}, {"measurement": "Change of Mass, Sorption", "setting": "[1]; Target % P/P0 90", "value": 0.1768, "unit": "%"}, {"measurement": "form transformation after DVS (XRPD overlay)", "setting": "[1]; after DVS 0-90-0% RH", "value": "no form transformation"}, {"measurement": "water sorption", "setting": "[1]; from 0-80% RH, 25° C.", "value": 0.1, "unit": "%"}]}
